A word on the IC50: it is the midpoint of a concentration-inhibition curve. Low values mean greater potency in that assay, high ones weaker potency in that assay.

This test can be described thus: Inhibition of cell division of Strongylocentrotus intermedius fertilized eggs. Format: functional, Egg.
In turn, `Oc1c(Br)c(Br)cc2c1Oc1cc(Br)cc(Br)c1O2` [SPONGIADIOXIN B] returned a half-inhibitory concentration (IC50) of 1.1 µM. In turn, `Oc1cc(Br)c(Br)c2c1Oc1cc(Br)cc(Br)c1O2` [SPONGIADIOXIN A] showed an IC50 of 4.8 µM. As to `COc1cc(Br)cc2c1Oc1cc(Br)cc(Br)c1O2` [SPONGIADIOXIN C METHYL ETHER], the IC50 turned out to be 166 µM. This IC50 is about 35-fold higher than that of the compound before. On to `COc1c(Br)c(Br)cc2c1Oc1cc(Br)cc(Br)c1O2` [SPONGIADIOXIN B METHYL ETHER], for which inhibition was half-maximal at 94 µM (IC50). Turning to `COc1cc(Br)cc(Br)c1Oc1cc(Br)cc(Br)c1OC`, the concentration for half-maximal inhibition (IC50) was 137 µM.

On to `COc1cc(Br)cc(Br)c1Oc1cc(Br)cc(Br)c1O`, for which inhibition was half-maximal at 4.7 µM (IC50). In the case of `Oc1cc(Br)cc2c1Oc1cc(Br)cc(Br)c1O2` [SPONGIADIOXIN C] it was 5.7 µM; in that of `COc1cc(Br)c(Br)c2c1Oc1cc(Br)cc(Br)c1O2` [SPONGIADIOXIN A METHYL ETHER], 141 µM.

Compound `COc1c(Br)cc(Br)cc1Oc1ccc(Br)cc1Br` came in with a half-inhibitory concentration (IC50) of 145 µM.

The values are drawn from ChEMBL document CHEMBL1150620, “Two new minor polybrominated dibenzo-p-dioxins from the marine sponge Dysidea dendyi” (J Nat Prod, 2002).
